Entries after “also recorded” stand apart in the source; their conditions may differ. Square brackets hold non-standard residues; d marks the D form. Peptide text beside a SMILES is read from it. * marks the point of attachment. Benzoyl(4-SiFtBu2) = CC(C)(C)[Si](F)(c1ccc(C(=O)*)cc1)C(C)(C)C; αMePhe(2-F) = C[C@](N)(Cc1ccccc1F)C(=O)O; hPhe = N[C@@H](CCc1ccccc1)C(=O)O; Dap = NC[C@H](N)C(=O)O; Aib = CC(C)(N)C(=O)O
Tests used:
[1] = target: T1, human GLP-1 receptor (Homo sapiens, UniProt P43220); test: Competitive binding (IC50) on HEK293-hGLP-1R cells with radioligand [Nle^14, [^125I]Tyr(3-I)^40]exendin-4; parameters: Dr. Timothy Kieffer (University of British Columbia); host or cells: HEK293; conditions: for IC50 ± SD (result in words): ligand range 10^-11 to 10^-5 M
T1 sequence (P43220 24-463): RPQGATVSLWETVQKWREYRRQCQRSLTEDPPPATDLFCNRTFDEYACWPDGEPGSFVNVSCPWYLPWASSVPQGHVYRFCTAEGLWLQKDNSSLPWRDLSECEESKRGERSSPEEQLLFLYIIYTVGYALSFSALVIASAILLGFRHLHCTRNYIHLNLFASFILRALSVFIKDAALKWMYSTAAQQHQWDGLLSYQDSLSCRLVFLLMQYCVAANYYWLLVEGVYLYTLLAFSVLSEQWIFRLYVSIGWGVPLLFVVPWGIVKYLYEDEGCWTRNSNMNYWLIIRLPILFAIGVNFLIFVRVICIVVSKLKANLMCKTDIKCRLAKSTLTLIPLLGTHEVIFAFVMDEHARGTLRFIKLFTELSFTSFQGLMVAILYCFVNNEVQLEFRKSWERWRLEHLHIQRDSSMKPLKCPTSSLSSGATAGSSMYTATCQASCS
Experimental: Dr. Timothy Kieffer (University of British Columbia, Vancouver, Canada). Cells were cultivated in high glucose DMEM (25.0 mM D-glucose, 3.97 mM GlutaMAX; REF-number: 61965–026; Fisher Scientific GmbH, Schwerte, Germany) supplemented with 10% fetal bovine serum and 1 mM sodium pyruvate. Medium for stably transfected HEK293-hGLP-1R cells was constantly supplemented with 1 mg/mL Geneticin (G-418 Biochrom, Merck KgaA, Darmstadt, Germany) as selection antibiotic. The cell line was kept at 37 °C in a humidified 5% CO2 atmosphere. One day (24 ± 2 h) prior to all in vitro experiments, the cultivated HEK293-h-GLP-1R cells were harvested using a mixture of trypsin/ethylenediaminetetraacetic acid (0.05%/0.02%) in phosphate-buffered saline (PBS) (Gibco, Germany) and centrifuged at 1300 rpm (ca. 190×g) for 3 min at room temperature (Heraeus Megafuge 16, Thermo Fisher, Germany). After centrifugation, the supernatant was disposed and the cell pellet was resuspended in culture medium. Cells were counted with a Neubauer hemocytometer (Paul Marienfeld GmbH & Co. KG, Lauda-Königshofen, Germany) and seeded in 24-well plates. IC50 values were determined by transferring 1.50 × 10^5 cells/mL per well into 24-well plates.
Detailed information on affinity experiments is provided in the SI. In brief, competitive binding studies were determined on HEK293-hGLP-1R cells (1.50 × 10^5 cells in 1 mL/well) after incubation at 4 °C for 2 hours, using [^125I]Tyr(3-I)^40–3 (0.41 nM/well) as reference radioligand (n = 3).
Dr. Timothy J. Kieffer (University of British Columbia, Vancouver, Canada). Cells were cultivated in high glucose DMEM (25.0 mM D-glucose, 3.97 mM GlutaMAX; REF-number: 61965-026; Fisher Scientific GmbH, Schwerte, Germany) supplemented with 10% fetal bovine serum and 1 mM sodium pyruvate. Medium for stably transfected HEK293-hGLP-1R cells was constantly supplemented with 1 mg/mL Geneticin (G-418 Biochrom, Merck KgaA, Darmstadt, Germany) as selection antibiotic. The cell line was kept at 37 °C in a humidified 5% CO2 atmosphere. One day (24 ± 2 h) prior to all in vitro experiments, the cultivated cells were harvested using a mixture of trypsin/ethylenediaminetetraacetic acid (0.05%/0.02%) in phosphate-buffered saline (PBS) (Merck KgaA, Darmstadt, Germany) and centrifuged at 1300 rpm (ca. 190 × g) for 3 min at room temperature (Heraeus Megafuge 16, Thermo Fisher Scientific, Darmstadt, Germany). After centrifugation, the supernatant was disposed and the cell pellet was resuspended in culture medium. Cells were counted with a Neubauer hemocytometer (Paul Marienfeld GmbH & Co. KG, Lauda-Königshofen, Germany) and seeded in 24-well plates (Greiner Bio-One, Kremsmünster, Austria). IC50 values were determined by transferring 1.50 × 10^5 cells/mL per well into 24-well plates (Greiner Bio-One, Kremsmünster, Austria).
The culture medium was removed and the cells were washed with 500 µL of Hank’s balanced salt solution (HBSS) (Merck KGaA, Darmstadt, Germany), containing 1% bovine serum albumin (BSA) (Merck KGaA, Darmstadt, Germany). Afterwards, 200 µL of HBSS (1% BSA) were added to each well and equilibrated on ice (4 °C) for 15 min. 25 µL/well of either HBSS (1% BSA) (= control) or of solutions, containing the respective unlabeled ligand in increasing concentrations (10^-10 - 10^-4 M in HBSS) were added, followed by the addition of 25 µL of [Nle^14, [^125I]Tyr(3-I)^40]exendin-4 in HBSS (1% BSA) to each well. Experiments were carried out in triplicates for each concentration. The final concentrations of unlabeled ligand ranged from 10^-11 - 10^-5 M and the final radioligand concentration was 0.41 nM in all binding assays. The cells were incubated for two hours at 4 °C. Incubation was terminated by removal of the incubation medium. The cells were washed with 250 µL of HBSS (1% BSA) and the wash medium was combined with the respective supernatant. This fraction represents the amount of free radioligand. The cells were lysed by addition of 250 µL of 1 M aqueous NaOH. […]

[2] = Stability study of the reference radioligand stock solution (RCP by radio-RP-HPLC); assay type: physicochemical
Experimental: ^125I-labeling. The radioiodinated reference ligand [Nle^14, [^125I]Tyr(3-I)^40]exendin-4 ([^125I]Tyr(3-I)^40–3) was prepared via the Iodogen method (Salacinski et al., [1981]), with some minor modifications. […] The solution was transferred to a vial, which has been precoated with 15.0 μg Iodogen (34.7 nmol, 139 eq.). Afterwards, 15 ± 5 MBq [^125I] NaI (74 MBq/nmol, 3.7 GBq/mL in 40 mM NaOH, Hartmann Analytic, Braunschweig, Germany) (5.00 μL, 250 pmol, 1.00 eq.) were added, the reaction solution was incubated for 15 min at r.t. and 150 μL thereof were purified by radio-RP-HPLC (0% B (2 min) ➔ 0–37.5% B (3 min) ➔ 37.5% B (35 min) ➔ 38% B (10 min), Method A*, 1 mL/min) to afford 3.15 MBq (48.8% RCY, > 99% RCP) of product [^125I]Tyr(3-I)^40–3. The radioligand was stored in the HPLC solvent (stock solution) at − 80 °C until further use. The radioligand stock solution was used to a maximum of 14 days to ensure a RCP of > 92% (Table 1 in the Additional file 1) and replaced by freshly prepared radioligand afterwards. Prior to the in vitro experiments, the radioligand was dissolved in HBSS (with or w/o 1% BSA) to achieve a final concentration of 0.41 nM in the respective assays. *Method A: solvent A = water + 0.1% TFA, solvent B = acetonitrile + 2% water + 0.1% TFA.
Table 1: Stability study of reference radioligand [^125I]Tyr(3-I)^40]-3, (n = 1).

[3] = target: T1, human GLP-1 receptor; test: Competitive binding (IC50) on HEK293-hGLP-1R cells with radioligand [Nle^14, [^125I]Tyr(3-I)^40]exendin-4; parameters: Dr. Timothy Kieffer (University of British Columbia); host or cells: HEK293; conditions: w/o BSA, HBSS
[4] = parameters: method as in Gotthardt et al., 2007; conditions: rats, pre-administration; ref Gotthardt et al., 2007; cited from earlier work

In the case of “H-L-His-Aib-L-Glu-Gly-L-Thr-L-(α-Me)Phe(2-F)-L-Thr-L-Ser-L-Asp-NH2 [Peptide 7]”, the “IC50 ± SD (result in words)” value ([1]; w/ and w/o BSA) is reported as “no detectable affinity n = 2 (w/ and w/o BSA)”.
In the case of “[Nle^14, [^125I]Tyr(3-I)^40]exendin-4 [[^125I]Tyr(3-I)^40-3]”, the RCP ([2]; 0 days after radioiodination, stock in HPLC solvent at −80 °C, n = 4) is reported as ≥ 95% (n = 4), the RCP ([2]; 4 days after radioiodination, stock in HPLC solvent at −80 °C) is reported as 95% and the RCP ([2]; 9 days after radioiodination, stock in HPLC solvent at −80 °C) is reported as 95%. For the same molecule, the RCP ([2]; 16 days after radioiodination, stock in HPLC solvent at −80 °C) was 92%, the RCP ([2]; 20 days after radioiodination, stock in HPLC solvent at −80 °C) was 82% and the RCP ([2]; 24 days after radioiodination, stock in HPLC solvent at −80 °C) was 82%. The RCP ([2]; 29 days after radioiodination, stock in HPLC solvent at −80 °C) was 78%, the RCP ([2]; 36 days after radioiodination, stock in HPLC solvent at −80 °C) was 78% and the RCP ([2]; stock solution used to a maximum of 14 days, −80 °C) was > 92%.
`CC(C)C[C@H](NC(=O)[C@H](CNC(=O)c1ccc([Si](F)(C(C)(C)C)C(C)(C)C)cc1)NC(=O)[C@H](CO)NC(=O)[C@H](CCc1ccccc1)NC(=O)[C@@H](NC(=O)[C@H](CC(=O)O)NC(=O)[C@H](CO)NC(=O)[C@@H](NC(=O)[C@](C)(Cc1ccccc1F)NC(=O)[C@@H](NC(=O)CNC(=O)[C@H](CCC(=O)O)NC(=O)C(C)(C)NC(=O)[C@@H](N)Cc1c[nH]cn1)[C@@H](C)O)[C@@H](C)O)C(C)C)C(=O)N[C@@H](CCC(=O)O)C(N)=O` [Peptide 11, H-L-His-Aib-L-Glu-Gly-L-Thr-L-(α-Me)Phe(2-F)-L-Thr-L-Ser-L-Asp-L-Val-L-homoPhe-L-Ser-L-Dap(SiFA)-L-Leu-L-Glu-NH2] (H-H[Aib]EGT[αMePhe(2-F)]TSDV[hPhe]S[Dap](Benzoyl(4-SiFtBu2))LE-NH2) showed an IC50 [1] of 7.12 ± 2.47 µM.
In the case of “H-L-His-Aib-L-Glu-Gly-L-Thr-L-(α-Me)Phe(2-F)-L-Thr-L-Ser-L-Asp-O2Oc-L/D-Dap(SiFA)-L-Leu-L-Glu-NH2 [Peptide 13]”, the “IC50 ± SD (result in words)” value ([1]; w/ and w/o BSA) is reported as “no radioligand displacement was observed; also recorded: no detectable affinity n = 2 (w/ and w/o BSA)”.
With “H-L-His-Aib-L-Glu-Gly-L-Thr-L-(α-Me)Phe-L-Thr-L-Ser-L-Asp-L-Phe(4-I)-L-homoPhe-NH2 [Peptide 8]” the “IC50 ± SD (result in words)” value ([1]; w/ and w/o BSA) was “eliminated any detectable affinity; also recorded: no detectable affinity n = 2 (w/ and w/o BSA)”.
In the case of `C[C@@H](O)[C@H](NC(=O)CNC(=O)[C@H](CCC(=O)O)NC(=O)C(C)(C)NC(=O)[C@@H](N)Cc1c[nH]cn1)C(=O)N[C@@](C)(Cc1ccccc1)C(=O)N[C@H](C(=O)N[C@@H](CO)C(=O)N[C@@H](CC(=O)O)C(=O)N[C@@H](CNC(=O)c1ccc([Si](F)(C(C)(C)C)C(C)(C)C)cc1)C(=O)N[C@@H](CCc1ccccc1)C(N)=O)[C@@H](C)O` [Peptide 4, H-L-His-Aib-L-Glu-Gly-L-Thr-L-(α-Me)Phe-L-Thr-L-Ser-L-Asp-L-Dap(SiFA)-L-homoPhe-NH2], the IC50 [1] is reported as 2.4 µM, the “IC50 ± SD (result in words)” value ([1]; w/ BSA (1% BSA)) is reported as “no detectable affinity” and the “maximal radioligand displacement (of maximal radioligand binding)” value [3] is reported as 61–69%.
In the case of `NCCCC[C@H](N)C(=O)O` [L-lysine], the “decrease of kidney uptake of [^111In]In-DTPA-exendin-4” value [4] is listed as “did not show any effect”.
For `C[C@@H](O)[C@H](NC(=O)CNC(=O)[C@H](CCC(=O)O)NC(=O)C(C)(C)NC(=O)[C@@H](N)Cc1c[nH]cn1)C(=O)N[C@@](C)(Cc1ccccc1F)C(=O)N[C@H](C(=O)N[C@@H](CO)C(=O)N[C@@H](CC(=O)O)C(=O)N[C@@H](CNC(=O)c1ccc([Si](F)(C(C)(C)C)C(C)(C)C)cc1)C(=O)N[C@@H](CCc1ccccc1)C(N)=O)[C@@H](C)O` [Peptide 5, H-L-His-Aib-L-Glu-Gly-L-Thr-L-(α-Me)Phe(2-F)-L-Thr-L-Ser-L-Asp-L-Dap(SiFA)-L-homoPhe-NH2], the IC50 [1] was 0.189 ± 0.035 µM, the “IC50 ± SD (result in words)” value ([1]; w/ BSA (1% BSA)) was “no detectable affinity” and the “maximal radioligand displacement (of maximal radioligand binding)” value [3] was 61–69%.
Molecule `CC(C)C[C@H](NC(=O)[C@H](CNC(=O)c1ccc([Si](F)(C(C)(C)C)C(C)(C)C)cc1)NC(=O)[C@H](CO)NC(=O)[C@H](CO)NC(=O)[C@@H](NC(=O)[C@H](CC(=O)O)NC(=O)[C@H](CO)NC(=O)[C@@H](NC(=O)[C@](C)(Cc1ccccc1F)NC(=O)[C@@H](NC(=O)CNC(=O)[C@H](CCC(=O)O)NC(=O)C(C)(C)NC(=O)[C@@H](N)Cc1c[nH]cn1)[C@@H](C)O)[C@@H](C)O)C(C)C)C(=O)N[C@@H](CCC(=O)O)C(N)=O` [Peptide 10, H-L-His-Aib-L-Glu-Gly-L-Thr-L-(α-Me)Phe(2-F)-L-Thr-L-Ser-L-Asp-L-Val-L-Ser-L-Ser-L-Dap(SiFA)- L-Leu-L-Glu-NH2] (H-H[Aib]EGT[αMePhe(2-F)]TSDVSS[Dap](Benzoyl(4-SiFtBu2))LE-NH2) has an IC50 [1] of 2.95 ± 0.31 µM.
With “H-L-His-Aib-L-Glu-Gly-L-Thr-L-(α-Me)Phe(2-F)-L-Thr-L-Ser-L-Asp-L-Val-L-Dap(SiFA)-NH2 [Peptide 9]” the “IC50 ± SD (result in words)” value ([1]; w/ and w/o BSA) was “no affinity was detected; also recorded: no detectable affinity n = 2 (w/ and w/o BSA)”.
With “H-L-His-Aib-L-Glu-Gly-L-Thr-L-(α-Me)Phe-L-Thr-L-Ser-L-Asp-OH [Peptide 6]” the “IC50 ± SD (result in words)” value ([1]; w/ BSA (1% BSA)) was “no detectable affinity n = 1 (w/ BSA)”.

Reference: PMC8387526, “Small peptide-based GLP-1R ligands: an approach to reduce the kidney uptake of radiolabeled GLP-1R-targeting agents?” (EJNMMI Radiopharmacy and Chemistry, 2021)
